Results on eleven compounds are retold here after ChEMBL document CHEMBL4014340, “Identification of a Potent, Selective, and Efficacious Phosphatidylinositol 3-Kinase δ (PI3Kδ) Inhibitor for the Treatment of Immunological Disorders” (J Med Chem, 2017).

Bounds are passed on as bounds.

Data set [1] is described as follows: Metabolic stability in human liver microsomes assessed as parent compound remaining at 0.5 uM preincubated for 6 mins followed by NADPH addition measured after 10 mins by LC-MS/MS analysis. It is filed as ADME, microsome. To be noted: read-out: Stability. (In general: Liver microsomes are vesicles of endoplasmic reticulum, rich in cytochrome P450 enzymes.)
The nature of data set [2]: Metabolic stability in mouse liver microsomes assessed as parent compound remaining at 0.5 uM preincubated for 6 mins followed by NADPH addition measured after 10 mins by LC-MS/MS analysis. It is filed as ADME, microsome. The following applies: read-out: Stability.
Data set [3] can be described thus: AUC (0 to 24 hrs) in Balb/c mouse at 10 mg/kg, po. It is filed as ADME, organism-based. Also on record: time < 24 hr, dose 10 mg/kg, route oral. To be noted: in vivo.
Data set [4] in a line: Half life in human liver microsomes aat 0.5 uM preincubated for 6 mins followed by NADPH addition measured after 10 mins by LC-MS/MS analysis. The data set is classed as ADME, microsome.
Data set [5] in a line: Metabolic stability in rat liver microsomes assessed as parent compound remaining at 0.5 uM preincubated for 6 mins followed by NADPH addition measured after 10 mins by LC-MS/MS analysis. To be noted: read-out: Stability. The data set is classed as ADME, microsome.
The subject of data set [6] is Oryctolagus cuniculus. The data set is described as follows: Effect on QTc time interval in New Zealand White rabbit administered as 10 mins iv infusion measured for 2 mins by ECG analysis. It is filed as ADME, organism-based. The following applies: in vivo.
Data set [7] in a line: Half life in mouse liver microsomes aat 0.5 uM preincubated for 6 mins followed by NADPH addition measured after 10 mins by LC-MS/MS analysis. It is filed as ADME, microsome.
Data set [8] can be described thus: Cmax in Balb/c mouse at 10 mg/kg, po. It is filed as ADME, organism-based. Also on record: dose 10 mg/kg, route oral. To be noted: in vivo.
Data set [9] in a line: Half life in rat liver microsomes aat 0.5 uM preincubated for 6 mins followed by NADPH addition measured after 10 mins by LC-MS/MS analysis. The data set is classed as ADME, microsome.
Data set [10] is described as follows: Volume of distribution at steady state in dog at 1 mg/kg, iv. The data set is classed as ADME, organism-based, Canis lupus familiaris. The following applies: in vivo, read-out: Vdss.
Data set [11] is described as follows: Half life in rat at 2 mg/kg, iv. It is filed as ADME, organism-based. To be noted: in vivo.
Data set [12] can be described thus: Clearance in mouse at 3 mg/kg, iv. To be noted: in vivo. The data set is classed as ADME, organism-based.
Data set [13] has as its system Plasma. The data set is described as follows: Drug uptake in New Zealand White rabbit plasma at 20 mg/kg, iv administered as 10 mins infusion measured up to 30 mins post dose. The data set is classed as ADME, organism-based, Oryctolagus cuniculus. To be noted: in vivo.
The nature of data set [14]: Oral bioavailability in mouse at 6 mg/kg. It is filed as ADME, organism-based. To be noted: in vivo.
A short description of data set [15]: AUC in rat at 5 mg/kg, po. It is filed as ADME, organism-based. The following applies: in vivo.
Data set [16] is described as follows: Half life in mouse at 3 mg/kg, iv. The data set is classed as ADME, organism-based. The following applies: in vivo.
A short description of data set [17]: Half life in monkey at 1 mg/kg, iv. The data set is classed as ADME, organism-based, Macaca mulatta. The following applies: rhesus monkey, in vivo.
The nature of data set [18]: AUC in mouse at 6 mg/kg, po. The data set is classed as ADME, organism-based. The following applies: in vivo.
The test system of data set [19] is Oryctolagus cuniculus. The data set is described as follows: Effect on QTc time interval in New Zealand White rabbit at 3 mg/kg, iv administered as 10 mins infusion measured for 2 mins by ECG analysis. It is filed as ADME, organism-based. To be noted: in vivo.
Data set [20] in a line: Oral bioavailability in rat at 5 mg/kg. It is filed as ADME, organism-based. The following applies: in vivo.
Data set [21] concerns Plasma. As to the kind of experiment: Drug uptake in New Zealand White rabbit plasma at 10 mg/kg, iv administered as 10 mins infusion measured up to 30 mins post dose. It is filed as ADME, organism-based, Oryctolagus cuniculus. To be noted: in vivo.
Data set [22] is described as follows: Clearance in monkey at 1 mg/kg, iv. The data set is classed as ADME, organism-based, Macaca mulatta. To be noted: rhesus monkey, in vivo.
For data set [23], the system named is Oryctolagus cuniculus. The data set is described as follows: Effect on QTc time interval in New Zealand White rabbit at 10 mg/kg, iv administered as 10 mins infusion measured for 2 mins by ECG analysis. It is filed as ADME, organism-based. The following applies: in vivo.
Data set [24] concerns Canis familiaris. The data set is described as follows: Oral bioavailability in dog at 2 mg/kg. It is filed as ADME, organism-based, Canis lupus familiaris. To be noted: in vivo.
Data set [25] is described as follows: Volume of distribution at steady state in rat at 2 mg/kg, iv. It is filed as ADME, organism-based. The following applies: in vivo, read-out: Vdss.
For data set [26], the system named is Plasma. As to the kind of experiment: Free plasma concentration in New Zealand White rabbit at 20 mg/kg, iv administered as 10 mins infusion measured up to 30 mins post dose. The data set is classed as ADME, organism-based, Oryctolagus cuniculus. To be noted: in vivo.
The test system of data set [27] is Plasma. As to the kind of experiment: Free plasma concentration in New Zealand White rabbit at 10 mg/kg, iv administered as 10 mins infusion measured up to 30 mins post dose. To be noted: in vivo. The data set is classed as ADME, organism-based, Oryctolagus cuniculus.
Data set [28] is described as follows: Cmax in mouse at 6 mg/kg, po. It is filed as ADME, organism-based. Details: dose 6 mg/kg, route oral. To be noted: in vivo.
Data set [29] in a line: Half life in dog at 1 mg/kg, iv. The data set is classed as ADME, organism-based, Canis lupus familiaris. The following applies: in vivo.
The test system of data set [30] is Oryctolagus cuniculus. As to the kind of experiment: Effect on QTc time interval in New Zealand White rabbit at 20 mg/kg, iv administered as 10 mins infusion measured for 2 mins by ECG analysis. It is filed as ADME, organism-based. The following applies: in vivo.
Data set [31] relates to Plasma. The data set is described as follows: Drug uptake in New Zealand White rabbit plasma at 3 mg/kg, iv administered as 10 mins infusion measured up to 30 mins post dose. The data set is classed as ADME, organism-based, Oryctolagus cuniculus. To be noted: in vivo.
Data set [32] concerns Plasma. The data set is described as follows: Free plasma concentration in New Zealand White rabbit at 3 mg/kg, iv administered as 10 mins infusion measured up to 30 mins post dose. It is filed as ADME, organism-based, Oryctolagus cuniculus. The following applies: in vivo.
Data set [33] can be described thus: Clearance in rat at 2 mg/kg, iv. The data set is classed as ADME, organism-based. To be noted: in vivo.
Data set [34] can be described thus: Cmax in rat at 5 mg/kg, po. The data set is classed as ADME, organism-based. Details: dose 5 mg/kg, route oral. The following applies: in vivo.
The nature of data set [35]: Volume of distribution at steady state in monkey at 1 mg/kg, iv. The data set is classed as ADME, organism-based, Macaca mulatta. To be noted: rhesus monkey, in vivo, read-out: Vdss.
Data set [36] in a line: Cmax in dog at 2 mg/kg, po. The following applies: in vivo. Details: dose 2 mg/kg, route oral. The data set is classed as ADME, organism-based, Canis lupus familiaris.
Data set [37] is described as follows: Volume of distribution at steady state in mouse at 3 mg/kg, iv. It is filed as ADME, organism-based. To be noted: in vivo, read-out: Vdss.

With `CC(=O)N1CCN(c2cccc(-c3cc(-c4ccnn4CC(F)(F)F)c4c(N)ncnn34)c2)C(=O)C1(C)C`, the remaining at 10 min, 0.5 µM came to 80% in [1], 62% in data set [2] and 70% in [5]. Further, in data set [3], the AUC(0-t) – broadly, the area under the concentration-time curve up to a stated or last time point – at 24 h came out at 4.1 µM·h. In addition, the values for the half-life at 0.5 µM in [4], in [7] and in [9] were 0.95 h, 0.433 h and 0.517 h, respectively. The Time in [6] is reported as above 10 ms. Also, in [8], the highest level (Cmax) was 1.8 µM.
With `CC(=O)N1CCN(c2cccc(-c3cc(C(F)(F)F)c4c(N)ncnn34)c2)C(=O)C1(C)C`, the results for the remaining at 10 min, 0.5 µM in data set [1], in [2] and in data set [5] were 83%, 30% and 52%, respectively. Further, the half-life (as a rule, the time in which the quantity being followed falls by half) at 0.5 µM in [4] came to 0.683 h; in [7], 0.15 h; in [9], 0.233 h.
In the case of `CC(=O)N1CCN(c2cc(-c3cc(C(F)(F)F)c4c(N)ncnn34)ccc2C#N)C(=O)C1(C)C`, the Vd was found to be 0.61 L/kg in [10], 0.5 L/kg in [25], 3.6 L/kg in data set [35] and 2.7 L/kg in [37]. In addition, the half-life in data set [11] is 3.5 h; in [16], 4.9 h; in data set [17], 10 h; in data set [29], 29 h. For the same compound, the figures for the clearance in [12], in data set [22] and in data set [33] were 17 mL/min/kg, 4.6 mL/min/kg and 2.3 mL/min/kg, respectively. In addition, the remaining at 10 min, 0.5 µM in data set [1] amounted to 94%; in data set [2], 81%; in data set [5], 91%. The concentration in data set [13] was 54 µM; in data set [21], 27 µM; in [31], 10 µM. The bioavailability (in general, dose-corrected exposure relative to a reference, in per cent) in data set [14] worked out at 94%; in data set [20], 71%. Besides, the values for the AUC in [15] and in [18] were 54 µM·h and 12 µM·h, respectively. The compound also came in with an area under the curve AUC(0-t) at 24 h in data set [3] of 17 µM·h. Moreover, the Time is reported as 2.2 ms in data set [19], 13 ms in data set [23] and 25 ms in data set [30]. Besides, the values for the half-life at 0.5 µM in data set [4], in data set [7] and in data set [9] were above 2 h, 1.2 h and 1.12 h, respectively. In data set [24], this compound registered an F of 75%. The figures for the “Cp(f)” value in [26], in [27] and in data set [32] were 4.8 µM, 2.4 µM and 0.9 µM, respectively. For the same compound, the Cmax (usually the highest concentration seen after dosing) in [28] is 5.9 µM; in [34] it was 14 µM; in data set [8], 8.2 µM; in data set [36], 6.3 µM.
Turning to `CC(=O)N1CCN(c2cc(-c3cc(Cl)c4c(N)ncnn34)ccc2C)C(=O)C1(C)C`, the remaining at 10 min, 0.5 µM in data set [1] came to 82%; in data set [2], 66%; in data set [5] it was 60%.
For `CC(=O)N1C[C@H](C)N(c2cc(-c3cc(Cl)c4c(N)ncnn34)ccc2C#N)C(=O)C1(C)C` the same measures were 99%, 85% and 94%.
For `CC(=O)N1CCN(c2cccc(-c3cc(-c4ccnn4C4CCOCC4)c4c(N)ncnn34)c2)C(=O)C1(C)C` the same measures were 77%, 53% and 81%.
For `COc1ccc(-c2cc(Cl)c3c(N)ncnn23)cc1N1CCN(C(C)=O)C(C)(C)C1=O` the same measures were 94%, 94% and 91%.
As to `CC(=O)N1C[C@H](C)N(c2cc(-c3cc(C(F)(F)F)c4c(N)ncnn34)ccc2C#N)C(=O)C1(C)C`, the remaining at 10 min, 0.5 µM was determined as 89% in data set [1], 100% in data set [2] and 91% in data set [5].
For `CC(=O)N1CCN(c2cc(-c3cc(C(F)(F)F)c4c(N)ncnn34)ccc2S(C)(=O)=O)C(=O)C1(C)C` the same measures were 96%, 97% and 96%.
For `CC(=O)N1CCN(c2cc(-c3cc(Cl)c4c(N)ncnn34)ccc2C#N)C(=O)C1(C)C` the same measures were 90%, 89% and 89%.
For `CC(=O)N1CCN(c2cc(-c3cc(Cl)c4c(N)ncnn34)ccc2C(F)(F)F)C(=O)C1(C)C` the same measures were 95%, 88% and 87%.
